In PubChem BioAssay (NCI):
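Exposure lasted 48 hours, with cells grown in 96-well plates and compounds tested at five concentrations. At the GI50, growth is halved. TGI: concentration producing complete growth inhibition.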

What was measured:
Test in all cases: NCI-60 cell line screen, 48 h
CAKI-1 renal = test system: CAKI-1 renal
OVCAR-8 ovarian = test system: OVCAR-8 ovarian
HS 578T breast = test system: HS 578T breast
OVCAR-4 ovarian = test system: OVCAR-4 ovarian
RXF 393 renal = test system: RXF 393 renal
M14 melanoma = test system: M14 melanoma
SW-620 colon = test system: SW-620 colon
MALME-3M melanoma = test system: MALME-3M melanoma
HOP-62 NSCLC = test system: HOP-62 NSCLC
SR leukemia = test system: SR leukemia
UACC-62 melanoma = test system: UACC-62 melanoma
HT29 colon = test system: HT29 colon
SK-MEL-2 melanoma = test system: SK-MEL-2 melanoma
IGROV1 ovarian = test system: IGROV1 ovarian
KM12 colon = test system: KM12 colon
SK-OV-3 ovarian = test system: SK-OV-3 ovarian
NCI-H226 lung = test system: NCI-H226 lung
SN12C renal = test system: SN12C renal
UACC-257 melanoma = test system: UACC-257 melanoma
SF-539 CNS = test system: SF-539 CNS
HL-60(TB) leukemia = test system: HL-60(TB) leukemia
HOP-92 NSCLC = test system: HOP-92 NSCLC
HCT-15 colon = test system: HCT-15 colon
A498 renal = test system: A498 renal
RPMI-8226 leukemia = test system: RPMI-8226 leukemia
T-47D breast = test system: T-47D breast
NCI-H23 lung = test system: NCI-H23 lung
ACHN renal = test system: ACHN renal
K-562 leukemia = test system: K-562 leukemia

Q: What does the source list for `COc1ccc(-c2nc3ccc(-c4nnc(SCC(=O)Nc5ccc(/C(C)=N\O)cc5)o4)cc3[nH]2)cc1`?
A: TGI (CAKI-1 renal): 25 µM; GI50 (OVCAR-8 ovarian): 7.7 µM; TGI (OVCAR-8 ovarian): 44.6 µM; GI50 (HS 578T breast): 2.75 µM; TGI (HS 578T breast): 8.15 µM; GI50 (OVCAR-4 ovarian): 20.9 µM; TGI (OVCAR-4 ovarian): 91.7 µM; GI50 (RXF 393 renal): 2.03 µM; TGI (RXF 393 renal): 5.18 µM; GI50 (M14 melanoma): 3.05 µM; TGI (M14 melanoma): > 100 µM; GI50 (SW-620 colon): 26.1 µM; TGI (SW-620 colon): 87.6 µM; GI50 (MALME-3M melanoma): 1.69 µM; TGI (MALME-3M melanoma): 3.95 µM; GI50 (HOP-62 NSCLC): 22.9 µM; TGI (HOP-62 NSCLC): > 100 µM; GI50 (SR leukemia): > 100 µM; TGI (SR leukemia): > 100 µM; GI50 (UACC-62 melanoma): 3.2 µM; TGI (UACC-62 melanoma): 12 µM; GI50 (HT29 colon): 13.8 µM; TGI (HT29 colon): 35.6 µM; GI50 (SK-MEL-2 melanoma): 5.27 µM; TGI (SK-MEL-2 melanoma): 17.8 µM; GI50 (IGROV1 ovarian): 12 µM; TGI (IGROV1 ovarian): 24.3 µM; GI50 (KM12 colon): 10.8 µM; TGI (KM12 colon): > 100 µM; GI50 (SK-OV-3 ovarian): 12.2 µM; TGI (SK-OV-3 ovarian): 28.8 µM; GI50 (NCI-H226 lung): 11.7 µM; TGI (NCI-H226 lung): 33.2 µM; GI50 (SN12C renal): 11.6 µM; TGI (SN12C renal): 28 µM; GI50 (UACC-257 melanoma): 4.31 µM; TGI (UACC-257 melanoma): 17.2 µM; GI50 (SF-539 CNS): 2.15 µM; TGI (SF-539 CNS): 6.35 µM; GI50 (HL-60(TB) leukemia): 19.5 µM; TGI (HL-60(TB) leukemia): > 100 µM; GI50 (HOP-92 NSCLC): 4.14 µM; TGI (HOP-92 NSCLC): 19.7 µM; GI50 (HCT-15 colon): > 100 µM; TGI (HCT-15 colon): > 100 µM; GI50 (A498 renal): 22.7 µM; TGI (A498 renal): 37.2 µM; GI50 (RPMI-8226 leukemia): 4 µM; TGI (RPMI-8226 leukemia): > 100 µM; GI50 (T-47D breast): 10 µM; TGI (T-47D breast): 34.8 µM; GI50 (NCI-H23 lung): 11 µM; TGI (NCI-H23 lung): 33.9 µM; GI50 (ACHN renal): 13 µM; TGI (ACHN renal): 35.2 µM; GI50 (K-562 leukemia): 3.68 µM; TGI (K-562 leukemia): > 100 µM
